Measurements reported in patent US20050287078A1, “Minimizing powder retention on surfaces” (MEDERIO AG, priority 2004, published 2005).

Assay: Ipratropium climate stability tests (fine particle dose out of HandiHaler, Andersen impactor)
Conditions: Atrovent powder, 1 month at 25° C./60% Rh or 40° C./75% Rh, FIG. 4
Description: The powder was withdrawn from the originator's capsules and transferred to the capsules again after climate storage. The aerodynamic fine particle fraction (FPF) in the emitted dose from the HandiHaler® was measured using Andersen impactors according to European Pharmacopoeia (EP) and US Pharmacopoeia (USP). All analytical work were then performed according to standardized methods using a state of the art High Performance Liquid Chromatograph (HPLC) system.
Aerodynamic fine particle fraction of metered and delivered dose out of Handihaler® using Atrovent® formulation powder was analyzed. Transfer of powder from and back into originator capsules was performed in relative humidity below 10%. The test was performed with 4 kPa pressure drop over the HandiHaler® at room temperature and laboratory ambient conditions.
An in-use stability test was carried out of the aerodynamic fine particle fraction of metered and delivered dose out of Handihaler®. From the blister holding the Atrovent® capsules the powder was transferred to a medium moisture barrier container and sealed. The containers were put for 1 month in 25° C. and 60% Rh. The container holding the powder was then put in an exicator for 2 h before tests were performed. The inhaler test was performed with 4 kPa pressure drop over the HandiHaler® at room temperature and laboratory ambient conditions. […]

## CC(C)[N+]1(C)[C@@H]2CC[C@H]1CC(OC(=O)C(CO)c1ccccc1)C2.[Br-] (stereo partly shown) [ipratropium bromide]
  Moisture sensitivity (drop in fine particle dose, FPD): very moisture sensitive
